Measurements published in patent US20190209645A1, “POTENTIATION OF ANTIBIOTIC ACTIVITY BY A NOVEL CATIONIC PEPTIDE, SPR741” (priority 2016, published 2019).
Bridge positions count the residues as written; N and C are the ends. Square brackets hold non-standard residues; d marks the D form. Peptide text beside a SMILES is read from it. Dab = NCC[C@H](N)C(=O)O

What was measured:
[1] = tested on: Acinetobacter baumannii (Ab) MDR and clinical isolates; assay: Susceptibility testing (MIC, CLSI M7-A10) of antibiotics with SPR741; format: cell-based; conditions: for order of potentiation of the antibiotics by SPR741: 17 Ab isolates, Mueller-Hinton broth-II with 0, 2 or 8 μg/mL SPR741
Procedure: (§1) Assays were performed against 25 Escherichia coli (Ec), 25 Klebsiella pneumoniae (Kp), and 17 Acinetobacter baumannii (Ab) MDR and clinical isolates, in Mueller-Hinton broth-II (cation adjusted) containing 0, 2 or 8 μg/mL SPR741. The minimum inhibitory concentration (MIC) was defined as the lowest concentration of antibiotic required to inhibit visible bacterial growth. MIC values were determined for each antibiotic/SPR741 combination and maximum reductions in MIC of the antibiotic in the combination were determined.

[2] = tested on: Escherichia coli (Ec) MDR and clinical isolates; assay: as above; format: cell-based; conditions: for order of potentiation of the antibiotics by SPR741: 25 Ec isolates, Mueller-Hinton broth-II with 0, 2 or 8 μg/mL SPR741
Procedure: as §1

[3] = tested on: Klebsiella pneumoniae (Kp) MDR and clinical isolates; assay: as above; format: cell-based; conditions: for order of potentiation of the antibiotics by SPR741: 25 Kp isolates, Mueller-Hinton broth-II with 0, 2 or 8 μg/mL SPR741
Procedure: as §1

[4] = Minimum bactericidal concentration of combinations in the presence of 5% surfactant (Survanta); format: cell-based; conditions: in combination with SPR741; with or without 5% Survanta
Procedure: (§2) Efficacy was assessed in checkerboard assays. The minimum inhibitory concentration (MIC) of SPR741, antibiotics, and combinations thereof was defined as the lowest concentration that inhibited growth of Ec ATCC 25922, Ab NCTC 12156 and Kp ATCC 43816. Ec BW25113, ΔtolC and ΔacrA were used to assess the contribution of the multi drug efflux pump AcrAB-TolC to susceptibility to the combinations. Interactions were assessed by calculating fractional inhibitory concentration indices (FICI) for each combination in which the MIC differed from compounds in isolation. Interactions were defined as: FICI>4, antagonism; 0.5-4, no interaction; <0.5, synergy. The minimum bactericidal concentration of combinations in the presence of 5% surfactant (Survanta) was also determined.

[5] = tested on: Ec BW25113, ΔtolC and ΔacrA; assay: Contribution of efflux pump AcrAB-TolC to susceptibility to the combinations; format: cell-based, Escherichia coli
Procedure: as §2

[6] = tested on: Gram negative bacteria; conditions: previously shown; cited from earlier work
[7] = Kp isolates, in combination with SPR741

SMILES | order of potentiation of the antibiotics by SPR741 [1] | order of potentiation of the antibiotics by SPR741 [2] | order of potentiation of the antibiotics by SPR741 [3] | other results
C[C@H]1[C@H](NC(=O)/C(=N\OC(C)(C)C(=O)O)c2csc(N)n2)C(=O)N1S(=O)(=O)O [AZT, aztreonam] | FA>RIF>CLR>RET>MEM>AZ>AZT>MUP | RIF>MUP=FA>AZ=RET>AZT>MEM=CLR | – | –
CO[C@H]1/C=C/O[C@@]2(C)Oc3c(C)c(O)c4c(O)c(c(/C=N/N5CCN(C)CC5)c(O)c4c3C2=O)NC(=O)/C(C)=C\C=C\[C@H](C)[C@H](O)[C@@H](C)[C@@H](O)[C@@H](C)[C@H](OC(C)=O)[C@@H]1C [RIF, rifampicin] | – | – | – | maximum MIC reduction ([2]; Ec isolates, in combination with SPR741): > 2000 fold; MIC of antibiotic alone ([2]; Ec isolates, without SPR741): > 128 µg/mL
CC(=O)O[C@H]1C[C@@]2(C)[C@@H](C[C@@H](O)[C@H]3[C@@]4(C)CC[C@@H](O)[C@@H](C)[C@@H]4CC[C@@]32C)/C1=C(\CCC=C(C)C)C(=O)O [FA, fusidic acid] | FA>RIF>CLR>RET>MEM>AZ>AZT>MUP | RIF>MUP=FA>AZ=RET>AZT>MEM=CLR | RET>RIF=AZ=CLR>MUP>MEM=FA>AZT | –
CC[C@H]1OC(=O)[C@H](C)[C@@H](O[C@H]2C[C@@](C)(OC)[C@@H](O)[C@H](C)O2)[C@H](C)[C@@H](O[C@@H]2O[C@H](C)C[C@H](N(C)C)[C@H]2O)[C@](C)(O)C[C@@H](C)CN(C)[C@H](C)[C@@H](O)[C@]1(C)O [AZ, azithromycin] | FA>RIF>CLR>RET>MEM>AZ>AZT>MUP | RIF>MUP=FA>AZ=RET>AZT>MEM=CLR | RET>RIF=AZ=CLR>MUP>MEM=FA>AZT | –
C[C@@H](O)[C@H]1C(=O)N2C(C(=O)O)=C(S[C@@H]3CN[C@H](C(=O)N(C)C)C3)[C@H](C)[C@H]12 [MEM, meropenem] | FA>RIF>CLR>RET>MEM>AZ>AZT>MUP | RIF>MUP=FA>AZ=RET>AZT>MEM=CLR | RET>RIF=AZ=CLR>MUP>MEM=FA>AZT | –
CC[C@H]1OC(=O)[C@H](C)[C@@H](O[C@H]2C[C@@](C)(OC)[C@@H](O)[C@H](C)O2)[C@H](C)[C@@H](O[C@@H]2O[C@H](C)C[C@H](N(C)C)[C@H]2O)[C@](C)(OC)C[C@@H](C)C(=O)[C@H](C)[C@@H](O)[C@]1(C)O [CLR, clarithromycin] | FA>RIF>CLR>RET>MEM>AZ>AZT>MUP | RIF>MUP=FA>AZ=RET>AZT>MEM=CLR | RET>RIF=AZ=CLR>MUP>MEM=FA>AZT | bactericidal activity (minimum bactericidal concentration) of the combination [4]: bactericidal at concentrations similar to the MIC irrespective of the presence of Survanta
C=C[C@]1(C)C[C@@H](OC(=O)CS[C@@H]2C[C@H]3CC[C@@H](C2)N3C)[C@]2(C)[C@H](C)CC[C@]3(CCC(=O)[C@H]32)[C@@H](C)[C@@H]1O [RET, retapamulin] | FA>RIF>CLR>RET>MEM>AZ>AZT>MUP | RIF>MUP=FA>AZ=RET>AZT>MEM=CLR | RET>RIF=AZ=CLR>MUP>MEM=FA>AZT | MIC of antibiotic in the combination [3, 7]: 4 µg/mL; MIC reduction [3, 7]: 32 fold; MIC of antibiotic alone ([3]; Kp isolates, without SPR741): 128 µg/mL
C/C(=C\C(=O)OCCCCCCCCC(=O)O)C[C@@H]1OC[C@H](C[C@@H]2O[C@H]2[C@@H](C)[C@H](C)O)[C@@H](O)[C@H]1O [MUP, mupirocin] | FA>RIF>CLR>RET>MEM>AZ>AZT>MUP | RIF>MUP=FA>AZ=RET>AZT>MEM=CLR | RET>RIF=AZ=CLR>MUP>MEM=FA>AZT | –
CC(=O)N[C@H](C(=O)N[C@H](CO)C(=O)N[C@H]1CCNC(=O)[C@H]([C@@H](C)O)NC(=O)[C@H](CCN)NC(=O)[C@H](CCN)NC(=O)[C@H](CC(C)C)NC(=O)[C@@H](Cc2ccccc2)NC(=O)[C@H](CCN)NC1=O)[C@@H](C)O [SPR741, Acetyl-Thr-dSer-cy[Dab-Dab-dPhe-Leu-Dab-Dab-Thr]] (Ac-T[dS][Dab][Dab][dF]L[Dab][Dab]T; lactam 3-C) | – | – | – | effect of SPR741 on MIC of antibiotics ([1]; MDR isolates of Ab): effectively reduced the MIC of currently utilized antibiotics; effect of SPR741 on MIC of antibiotics ([2]; MDR isolates of Ec): effectively reduced the MIC of currently utilized antibiotics; effect of SPR741 on MIC of antibiotics ([3]; MDR isolates of Kp): effectively reduced the MIC of currently utilized antibiotics; potentiation of antibiotics that are AcrAB-TolC substrates [5]: able to potentiate antibiotics that are substrates of AcrAB-TolC; sensitisation of bacteria to antibiotics [6]: increase the sensitivity of certain bacteria to Mupirocin, Azithromycin, Fusidic Acid, and Vancomycin
